15 compounds from patent US20250382332A1, “NOVEL ALPHA-FACTOR BASED PEPTIDES WITH ANTIFUNGAL ACTIVITY” (INVAIO SCIENCES, INC., priority 2024, published 2025) can be followed below.

The test relates to Botrytis cinerea (B05.10). Briefly: Resazurin antifungal assay of 180 alpha-factor peptide variants towards Botrytis (Example 2). Format: cell-based. Particulars: % inhibition of fungal growth, Botrytis conidia, resazurin; for Inhibition at 10 μM: peptide 10 μM; for Inhibition at 20 μM: peptide 20 μM; for Inhibition at 50 μM: peptide 50 μM; for Inhibition at 100 μM: peptide 100 μM. The method in brief:
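B. cinerea B05.10 conidia (5000/well) were exposed to peptides at 100, 50, 20, 15 and 10 μM final for 24 h at 20° C. Resazurin was then added and fluorescence read at 570/620 nm. Percent growth inhibition was calculated against conidia-only wells, with four technical replicates.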
(Alamar Blue is a resazurin reagent that responds to reducing activity.)

Peptide text beside a SMILES is read from it. Bounds are passed on as bounds.

Regarding `CC[C@H](C)[C@H](NC(=O)[C@H](Cc1c[nH]cn1)NC(=O)[C@@H](N)Cc1c[nH]c2ccccc12)C(=O)N[C@@H](CC(C)C)C(=O)N[C@@H](CCCNC(=N)N)C(=O)N[C@@H](Cc1ccccc1)C(=O)N[C@@H](CCCCN)C(=O)N[C@@H](CC(N)=O)C(=O)NCC(=O)N[C@@H](CCSC)C(=O)N1CCC[C@H]1C(=O)N[C@@H](CCSC)C(=O)N[C@@H](Cc1ccc(O)cc1)C(=O)O` [compound 105] (H-WHILRFKNGMPMY-OH; N-terminus and C-terminus assumed), the Inhibition (commonly the change of the read-out against control, counted positive when it falls) at 10 μM was less than 90%; the “Inhibition at 20 μM” value is listed as less than 90%; the “Inhibition at 50 μM” value is on record as less than 90%; the “Inhibition at 100 μM” value was 100%.

For `CSCC[C@H](NC(=O)[C@@H]1CCCN1C(=O)[C@H](CCC(=O)O)NC(=O)CNC(=O)[C@H](CCCCN)NC(=O)[C@H](CCCCN)NC(=O)[C@H](CC(C)C)NC(=O)[C@H](CCC(N)=O)NC(=O)[C@@H](NC(=O)[C@H](Cc1c[nH]c2ccccc12)NC(=O)[C@H](Cc1c[nH]cn1)NC(=O)[C@@H](N)Cc1c[nH]c2ccccc12)C(C)C)C(=O)N[C@@H](Cc1ccc(O)cc1)C(=O)O` [compound 106] (H-WHWVQLKKGEPMY-OH; N-terminus and C-terminus assumed), the “Inhibition at 10 μM” value is less than 90%, the “Inhibition at 20 μM” value is given as less than 90%, the “Inhibition at 50 μM” value was less than 90% and the “Inhibition at 100 μM” value is on record as 100%.

For the compound `CSCC[C@H](NC(=O)[C@@H]1CCCN1C(=O)[C@H](CCC(N)=O)NC(=O)CNC(=O)[C@@H]1CCCN1C(=O)[C@H](CCCCN)NC(=O)[C@H](CC(C)C)NC(=O)[C@H](CO)NC(=O)[C@H](CC(C)C)NC(=O)[C@H](Cc1ccccc1)NC(=O)[C@H](Cc1c[nH]cn1)NC(=O)[C@@H](N)CCCCN)C(=O)N[C@@H](Cc1ccc(O)cc1)C(=O)O` [compound 107] (H-KHFLSLKPGQPMY-OH; N-terminus and C-terminus assumed), the “Inhibition at 10 μM” value is given as less than 90%, the “Inhibition at 20 μM” value is less than 90%, the “Inhibition at 50 μM” value was less than 90% and the “Inhibition at 100 μM” value is recorded as 98.74%.

Take `CSCC[C@H](NC(=O)[C@@H]1CCCN1C(=O)[C@H](CCC(N)=O)NC(=O)CNC(=O)[C@H](Cc1ccc(O)cc1)NC(=O)[C@H](CC(N)=O)NC(=O)[C@H](CC(C)C)NC(=O)[C@H](CCCCN)NC(=O)[C@H](CC(C)C)NC(=O)[C@H](Cc1c[nH]c2ccccc12)NC(=O)[C@H](Cc1c[nH]cn1)NC(=O)[C@@H](N)Cc1c[nH]c2ccccc12)C(=O)N[C@@H](Cc1ccc(O)cc1)C(=O)O` [compound 108] (H-WHWLKLNYGQPMY-OH; N-terminus and C-terminus assumed): the “Inhibition at 10 μM” value is less than 90%, the “Inhibition at 20 μM” value is less than 90%, the “Inhibition at 50 μM” value is less than 90% and the “Inhibition at 100 μM” value is given as 100%.

On to `CC[C@H](C)[C@H](NC(=O)[C@H](CCC(N)=O)NC(=O)[C@H](CC(C)C)NC(=O)[C@H](Cc1c[nH]c2ccccc12)NC(=O)[C@H](CCCNC(=N)N)NC(=O)[C@@H](N)CCCCN)C(=O)N[C@@H](CCCNC(=N)N)C(=O)N1CCC[C@H]1C(=O)NCC(=O)N[C@@H](CCC(=O)O)C(=O)N1CCC[C@H]1C(=O)N[C@@H](CCSC)C(=O)N[C@@H](Cc1ccc(O)cc1)C(=O)O` [compound 109] (H-KRWLQIRPGEPMY-OH; N-terminus and C-terminus assumed), for which the “Inhibition at 10 μM” value was less than 90%, the “Inhibition at 20 μM” value is less than 90%, the “Inhibition at 50 μM” value is on record as less than 90% and the “Inhibition at 100 μM” value is recorded as 98.64%.

As to `CC[C@H](C)[C@H](NC(=O)[C@H](CO)NC(=O)[C@H](CC(C)C)NC(=O)[C@H](Cc1c[nH]c2ccccc12)NC(=O)[C@H](Cc1c[nH]cn1)NC(=O)[C@@H](N)Cc1c[nH]c2ccccc12)C(=O)N[C@@H](CCCCN)C(=O)N1CCC[C@H]1C(=O)NCC(=O)N[C@@H](CCC(N)=O)C(=O)NCC(=O)N[C@@H](CCSC)C(=O)N[C@@H](Cc1ccc(O)cc1)C(=O)O` [compound 110] (H-WHWLSIKPGQGMY-OH; N-terminus and C-terminus assumed), the “Inhibition at 50 μM” value was less than 90% and the “Inhibition at 100 μM” value is listed as 97.94%.

As for `CSCC[C@H](NC(=O)[C@@H]1CCCN1C(=O)[C@H](CO)NC(=O)CNC(=O)[C@@H]1CCCN1C(=O)CNC(=O)[C@H](Cc1ccccc1)NC(=O)[C@H](CCC(N)=O)NC(=O)[C@@H](NC(=O)[C@H](Cc1c[nH]c2ccccc12)NC(=O)[C@H](Cc1c[nH]cn1)NC(=O)[C@@H](N)Cc1c[nH]c2ccccc12)C(C)C)C(=O)N[C@@H](Cc1ccc(O)cc1)C(=O)O` [compound 111] (H-WHWVQFGPGSPMY-OH; N-terminus and C-terminus assumed), the “Inhibition at 10 μM” value is reported as less than 90%, the “Inhibition at 20 μM” value is recorded as less than 90%, the “Inhibition at 50 μM” value is less than 90% and the “Inhibition at 100 μM” value was 96.65%.

Turning to `CSCC[C@H](NC(=O)[C@@H]1CCCN1C(=O)[C@H](CCC(N)=O)NC(=O)CNC(=O)[C@@H]1CCCN1C(=O)[C@H](CCCCN)NC(=O)[C@H](CC(C)C)NC(=O)[C@H](CCCNC(=N)N)NC(=O)[C@H](CC(C)C)NC(=O)[C@H](Cc1ccccc1)NC(=O)[C@H](Cc1c[nH]cn1)NC(=O)[C@@H]1CCCN1)C(=O)N[C@@H](Cc1ccc(O)cc1)C(=O)O` [compound 112] (H-PHFLRLKPGQPMY-OH; N-terminus and C-terminus assumed), the “Inhibition at 50 μM” value is given as less than 90% and the “Inhibition at 100 μM” value is listed as 99.57%.

As to `CSCC[C@H](NC(=O)[C@@H]1CCCN1C(=O)[C@H](CCC(N)=O)NC(=O)CNC(=O)[C@@H]1CCCN1C(=O)[C@H](CCCCN)NC(=O)[C@H](CC(C)C)NC(=O)[C@H](CC(N)=O)NC(=O)[C@H](CC(C)C)NC(=O)[C@H](CC(C)C)NC(=O)[C@H](Cc1c[nH]cn1)NC(=O)[C@@H](N)CCCCN)C(=O)N[C@@H](Cc1ccc(O)cc1)C(=O)O` [compound 113] (H-KHLLNLKPGQPMY-OH; N-terminus and C-terminus assumed), the “Inhibition at 50 μM” value was less than 90% and the “Inhibition at 100 μM” value was 98.44%.

For `CC[C@H](C)[C@H](NC(=O)[C@H](Cc1c[nH]c2ccccc12)NC(=O)[C@H](Cc1c[nH]cn1)NC(=O)[C@@H](N)Cc1c[nH]c2ccccc12)C(=O)N[C@@H](CC(N)=O)C(=O)N[C@@H](CC(C)C)C(=O)N[C@@H](Cc1c[nH]c2ccccc12)C(=O)N1CCC[C@H]1C(=O)NCC(=O)N[C@@H](CCC(N)=O)C(=O)N1CCC[C@H]1C(=O)N[C@@H](CCSC)C(=O)N[C@@H](Cc1ccc(O)cc1)C(=O)O` [compound 114] (H-WHWINLWPGQPMY-OH; N-terminus and C-terminus assumed), the “Inhibition at 50 μM” value was less than 90% and the “Inhibition at 100 μM” value came to 100%.

As to `CSCC[C@H](NC(=O)[C@@H]1CCCN1C(=O)[C@H](CCC(N)=O)NC(=O)CNC(=O)[C@H](CC(C)C)NC(=O)[C@H](CCCCN)NC(=O)[C@H](CC(C)C)NC(=O)[C@H](CCC(N)=O)NC(=O)[C@H](CC(C)C)NC(=O)[C@@H](NC(=O)[C@H](CCCCN)NC(=O)[C@@H](N)CCCCN)C(C)C)C(=O)N[C@@H](Cc1ccc(O)cc1)C(=O)O` [compound 115] (H-KKVLQLKLGQPMY-OH; N-terminus and C-terminus assumed), the “Inhibition at 50 μM” value is recorded as less than 90% and the “Inhibition at 100 μM” value was 99.72%.

Take `CSCC[C@H](NC(=O)[C@@H]1CCCN1C(=O)[C@H](CCC(N)=O)NC(=O)CNC(=O)[C@@H]1CCCN1C(=O)[C@H](CCCCN)NC(=O)[C@H](Cc1ccccc1)NC(=O)[C@H](CCCCN)NC(=O)[C@H](CC(C)C)NC(=O)[C@H](CC(=O)O)NC(=O)[C@H](Cc1c[nH]cn1)NC(=O)[C@@H](N)CCCCN)C(=O)N[C@@H](Cc1ccc(O)cc1)C(=O)O` [compound 116] (H-KHDLKFKPGQPMY-OH; N-terminus and C-terminus assumed): the “Inhibition at 50 μM” value is less than 90% and the “Inhibition at 100 μM” value is 93.51%.

Consider `CSCC[C@H](NC(=O)[C@@H]1CCCN1C(=O)[C@H](CCC(N)=O)NC(=O)CNC(=O)[C@@H]1CCCN1C(=O)[C@H](CCCCN)NC(=O)[C@H](CC(C)C)NC(=O)[C@H](CCC(N)=O)NC(=O)CNC(=O)[C@H](CO)NC(=O)[C@H](CCC(N)=O)NC(=O)[C@@H](N)Cc1c[nH]c2ccccc12)C(=O)N[C@@H](Cc1ccc(O)cc1)C(=O)O` [compound 117] (H-WQSGQLKPGQPMY-OH; N-terminus and C-terminus assumed), for which the “Inhibition at 50 μM” value was less than 90% and the “Inhibition at 100 μM” value was less than 90%.

On to `CSCC[C@H](NC(=O)[C@H](Cc1c[nH]cn1)NC(=O)[C@@H](N)Cc1c[nH]c2ccccc12)C(=O)N[C@@H](CC(C)C)C(=O)N[C@@H](CC(N)=O)C(=O)N[C@@H](Cc1ccccc1)C(=O)N[C@@H](CCCCN)C(=O)N1CCC[C@H]1C(=O)NCC(=O)N[C@@H](CCC(N)=O)C(=O)N1CCC[C@H]1C(=O)N[C@@H](CCSC)C(=O)N[C@@H](Cc1ccc(O)cc1)C(=O)O` [compound 118] (H-WHMLNFKPGQPMY-OH; N-terminus and C-terminus assumed), for which the “Inhibition at 50 μM” value is on record as less than 90% and the “Inhibition at 100 μM” value is less than 90%.

Take `CSCC[C@H](NC(=O)[C@@H]1CCCN1C(=O)[C@H](CCC(=O)O)NC(=O)CNC(=O)[C@@H](NC(=O)CNC(=O)[C@H](CC(C)C)NC(=O)[C@H](CCCCN)NC(=O)[C@H](CC(C)C)NC(=O)[C@H](Cc1c[nH]c2ccccc12)NC(=O)[C@H](Cc1c[nH]cn1)NC(=O)[C@@H](N)Cc1c[nH]c2ccccc12)[C@@H](C)O)C(=O)N[C@@H](Cc1ccc(O)cc1)C(=O)O` [compound 119] (H-WHWLKLGTGEPMY-OH; N-terminus and C-terminus assumed): the “Inhibition at 50 μM” value was less than 90% and the “Inhibition at 100 μM” value came to 98.65%.
